We go through two compounds from patent publication US20150094321A1, “COMBINATION” (GlaxoSmithKline LLC, priority 2009, published 2015).

Common to all, as to test: Cell line proliferation study
What all share (assay type): cell-based, human

In experiment [1] the test system is SW480. The settings on record: SW480, colon; for IC50: Homo sapiens, 72 hours, read-out: gIC50. As to the method: (§1) In a separate study, combination drug tests with Compounds A and B were conducted using a panel of cell lines from human colon cancers (n=26), lung cancers (n=15) and pancreatic cancers (n=6). Cell lines were obtained from commercial vendors (ATCC and DSMZ). Cell lines were grown in RPMI-1640 supplemented with 2 mM glutamine, 1 mM sodium pyruvate and 10% fetal bovine serum (except for Capan-1 and HuP-T4 which were grown with 20% fetal bovine serum) and maintained at 37° C. and 5% CO2 in a humid incubator. Assays were performed in 384 well microtiter plates with optimum seeding densities for each cell line.
(§2) The test compounds were prepared as 10 mM stocks in 100% DMSO. Further dilutions of the compounds were made in DMSO. Compound A was diluted horizontally in a separate 96 well microtiter plate in rows D-G using a 3-fold dilution series for 10 dilution points. Compound B was similarly diluted horizontally in a 96 well microtiter plate in rows B-E using a 3-fold dilution series for 10 dilution points.
(§3) The two compounds were combined using equal volumes from each drug plate into cell culture media. […] Both Compound A and Compound B were individually titrated in rows B and C (for Compound B) and rows F and G (for Compound A) of the merged drug plate.
(§4) A 1:10 dilution of the drugs was performed in cell culture media prior to addition to the cells.
(§5) The final concentration range for the test compounds was 250 to 0.013 nM for Compound A and 1000 to […] for Compound B. The positive control consisted of culture media with DMSO at 0.1% and cells. The negative control consisted of culture media with DMSO at 0.1%. The cell lines were incubated at 37° C., 5% CO2 in humid air for 72 hours. Cell proliferation was measured using the CellTiter Glo (Promega) reagent according to the manufacturer's protocol. The plates are treated with CellTiter Glo solution and are analyzed for RLU (relative light units) using a Molecular Devices SpectraMax M5 plate reader.
(§6) The percent intensity values were used in model 205 of XLfit (IDBS, Inc.) in Microsoft Excel to calculate gIC50 values using a 4 parameter logistical fit. The midpoint of the growth window (the gIC50) falls half way between the number of cells at the time of compound addition (T=0) and the growth of control cells treated with DMSO at 72 hrs. The number of cells at time zero (T0) is divided from the intensity value at the bottom of the response curve (Ymin) to generate a measure for cell death (Ymin/T0). A value below 1 for Ymin/T0 indicates stronger potency to induce cell death with the treatment when compared to higher values.
(§7) 1. Excess over Highest Single Agent (EOHSA)—This was calculated as described above (Borisy et al, 2003; FDA 21 CFR 300.50) 2. Bliss synergy—A second criterion often used to determine combination synergy is evaluating the excess inhibition over Bliss independence or “additivity” (Bliss and Mexico, 1939). The model assumes a combined response of the two compounds independently using the following:
(§8) Where Ea is the effect (or percent inhibition) of Compound A and Eb is the effect of Compound B. The resulting effect of the combination of the two compounds is compared to their predicted additivity by Bliss and a synergy score is generated for each dose along the response curve. 3. Combination Index (CI)—A third criterion traditionally used for the evaluation of synergy is Combination Index (CI) derived from the Chou and Talalay (1984). The following equation is a model used for compounds that behave with different mechanisms of action (mutually non-exclusive formula). This was calculated as described above.
(§9) For EOHSA and Bliss Synergy measures, a score is generated for each dose along the response curve. These scores reflect the percentage over the highest agent (EOHSA) or percentage greater than Bliss additivity, depending on which metric is being interpreted. […]

For experiment [2], the system named is KM12. The settings on record: KM12, colon; for IC50: Homo sapiens, 72 hours, read-out: gIC50. As to the method: as §1, §2, §3, §4, §5, §6, §7, §8, §9
The subject of experiment [3] is SW1990. The settings on record: SW1990, pancreas; for IC50: Homo sapiens, 72 hours, read-out: gIC50. As for the experimental part:
as §1, §2, §3, §4, §5, §6, §7, §8, §9

Experiment [4] relates to NCIH1792. The settings on record: NCIH1792, lung; for IC50: Homo sapiens, NCI-H1792, 72 hours, read-out: gIC50. As to the method: as §1, §2, §3, §4, §5, §6, §7, §8, §9
Experiment [5] concerns NCIH2122. The following applies: NCIH2122, lung; for IC50: Homo sapiens, NCI-H2122, 72 hours, read-out: gIC50. As for the experimental part: as §1, §2, §3, §4, §5, §6, §7, §8, §9

With `CC(=O)Nc1cccc(-n2c(=O)n(C3CC3)c(=O)c3c(Nc4ccc(I)cc4F)n(C)c(=O)c(C)c32)c1` [Compound A, N-{3-[3-cyclopropyl-5-(2-fluoro-4-iodo-phenylamino)-6,8-dimethyl-2,4,7-trioxo-3,4,6,7-tetrahydro-2H-pyrido[4,3-d]pyrimidin-1-yl]phenyl}acetamide], the IC50 amounted to 326 nM in experiment [1]; 28.7 nM in experiment [2]; 94 nM in experiment [3]; 42 nM in experiment [4]; 30 nM in experiment [5]. Also, the Ymin/T0 in experiment [1] is reported as 29.37; in experiment [2], 19.1; in experiment [3] it was 17.1; in experiment [4] it was 2.8; in experiment [5] it was −11.8.
As for `Cn1ncc(Cl)c1-c1cc(C(=O)N[C@H](CN)Cc2ccc(F)c(F)c2)oc1Cl` [Compound B, N-{(1S)-2-amino-1-[(3,4-difluorophenyl)methyl]ethyl}-5-chloro-4-(4-chloro-1-methyl-1H-pyrazol-5-yl)-2-furancarboxamide], the IC50 is > 1000 nM in experiment [1]; 928 nM in experiment [2]; > 1000 nM in experiment [3]; > 1000 nM in experiment [4]; > 1000 nM in experiment [5]. The Ymin/T0 is reported as 11.87 in experiment [1]; 13.9 in experiment [2]; 36.8 in experiment [3]; 26.0 in experiment [4]; 11.4 in experiment [5].
